Some test systems named below: Escherichia coli; Staphylococcus aureus; Escherichia coli K-12; Escherichia coli E416-17; Escherichia coli E423-17.
What all share (assay): ≥ marks a high value that may be exact or a test limit, other limits are often not marked, values filed in µg/mL are converted to µM
For experiment [1], the system named is Pseudomonas aeruginosa NBRC 13275.
The subject of experiment [2] is Escherichia coli DH5alpha.
Experiment [3] concerns Staphylococcus aureus NBRC 13276.
Experiment [4] deals with Staphylococcus epidermidis NBRC 12298.
In experiment [5] the test system is Staphylococcus aureus ATCC 25923.
For experiment [6], the system named is Micrococcus luteus ATCC 49732.
In experiment [7] the test system is Escherichia coli ATCC 25922.
Experiment [8] concerns Aeromonas hydrophila ATCC 35654.
The subject of experiment [9] is Trichophyton rubrum ATCC 28189.
Experiment [10] deals with Candida albicans ATCC 24433.
For experiment [11], the system named is Candida parapsilosis ATCC 22019.
Experiment [12] deals with Staphylococcus aureus M838-17.
Experiment [13] has as its system Staphylococcus aureus USA 300.

Converted amounts (≈) assume the structure as drawn.

Experimental findings from DBAASP are described below.

On to `CC[C@H](C)[C@H](NC(=O)CN)C(=O)N[C@@H](CCCCN)C(=O)N[C@@H](CCCCN)C(=O)N[C@@H](Cc1ccccc1)C(=O)N[C@@H](CC(C)C)C(=O)N[C@@H](CCCCN)C(=O)N[C@@H](CO)C(=O)N[C@@H](C)C(=O)N[C@@H](CCCCN)C(=O)N[C@@H](CCCCN)C(=O)N[C@@H](Cc1ccccc1)C(=O)N[C@H](C(=O)N[C@@H](CCCCN)C(=O)N[C@@H](C)C(=O)N[C@@H](Cc1ccccc1)C(=O)N[C@@H](CCCCN)C(N)=O)C(C)C` [GIKKFLKSAKKFVKAFK], for which the MIC is 1.56 µM (≈ 3.07 µg/mL) in experiment [1], 3.12 µM (≈ 6.15 µg/mL) in experiment [2], 6.25 µM (≈ 12.3 µg/mL) in experiment [3] and 3.12 µM (≈ 6.15 µg/mL) in [4].
On to `CC[C@H](C)[C@H](NC(=O)[C@H](CC(C)C)NC(=O)[C@H](CCC(N)=O)NC(=O)[C@@H](NC(=O)[C@H](CCCN=C(N)N)NC(=O)[C@@H](NC(=O)[C@H](CS)NC(=O)[C@H](CCCCN)NC(=O)[C@@H](N)CCCN=C(N)N)C(C)C)C(C)C)C(=O)N[C@@H](CCCCN)C(=O)N[C@@H](CC(N)=O)C(=O)NCC(=O)N[C@@H](CCCCN)C(=O)N[C@@H](CCCCN)C(=O)N[C@H](C(=O)N[C@H](C(=O)N[C@@H](C)C(=O)N[C@@H](Cc1ccccc1)C(N)=O)[C@@H](C)O)[C@@H](C)CC` [RKCVRVQLIKNGKKITAF], for which the minimum inhibitory concentration (MIC) in experiment [5] amounted to 7.2 µM (≈ 15.1 µg/mL); in [6] it was 7.2 µM (≈ 15.1 µg/mL); in [7], 8.4 µM (≈ 17.7 µg/mL); in [8], 8.4 µM (≈ 17.7 µg/mL).
For the compound `CC[C@H](C)[C@H](NC(=O)[C@H](CCCCN)NC(=O)[C@H](CCC(=O)O)NC(=O)[C@H](CO)NC(=O)[C@H](CCCN=C(N)N)NC(=O)[C@@H](N)CO)C(=O)N[C@H](C(=O)N[C@@H](Cc1cnc[nH]1)C(=O)N[C@@H](CCC(N)=O)C(=O)N[C@@H](CC(C)C)C(=O)N[C@@H](Cc1ccccc1)C(N)=O)C(C)C` [SRSEKIVHQLF], the MIC in [9] was no less than 298 µM; in experiment [10], no less than 298 µM; against Escherichia coli, greater than 298 µM; with Staphylococcus aureus, greater than 298 µM; in experiment [11] it was no less than 298 µM.
Turning to `CC(C)C[C@H](NC(=O)[C@H](Cc1c[nH]c2ccccc12)NC(=O)[C@H](Cc1c[nH]c2ccccc12)NC(=O)[C@@H](N)Cc1c[nH]c2ccccc12)C(=O)N[C@@H](CCCN=C(N)N)C(=O)N[C@@H](CCCN=C(N)N)C(=O)N[C@@H](CCCN=C(N)N)C(=O)N[C@@H](Cc1c[nH]c2ccccc12)C(=O)O` [WWWLRRRW], the MIC is 4 µM (≈ 5.38 µg/mL) in experiment [12]; 16 µM (≈ 21.5 µg/mL) with Escherichia coli K-12; 4 µM (≈ 5.38 µg/mL) in experiment [13]; 16 µM (≈ 21.5 µg/mL) against Escherichia coli E416-17; no less than 32 µM against Escherichia coli E423-17; 16 µM (≈ 21.5 µg/mL) in experiment [7].

By MIC is commonly meant the lowest concentration found to suppress growth. The low end stands for a more susceptible organism, the high end for a less susceptible organism.
